Source: patent US7829568B2, “Substituted 5,6,7,8-tetrahydroimidazo[1,2-a]pyridin-2-ylamine compounds and their use for producing drugs” (Gruenenthal GmbH, priority 2005, dated 2010)

These compounds were tested on batrachotoxin (BTX) binding site of the sodium channel (assay: Affinity to the batrachotoxin (BTX) binding site of the sodium channel). Conditions: [3H]-batrachotoxinin A20 α-benzoate 10 nM; synaptosomes from rat cerebral cortex; test concentration not given.
Parameters: species or system rat

Compared with `CCCCN(C(=O)c1cccc(Cl)c1)c1nc2n(c1C(=O)N1CCN(Cc3ccc(Cl)cc3)CC1)CCCC2` [Example 140, N-butyl-3-chloro-N-{3-[4-(4-chloro-benzyl)-piperazine-1-carbonyl]-5,6,7,8-tetrahydro-imidazo[1,2-a]pyridin-2-yl}-benzamide], `CCCCN(C(=O)c1cccc(Cl)c1)c1nc2n(c1C(=O)N1CCN(c3ccccn3)CC1)CCCC2` [Example 72, N-butyl-3-chloro-N-[3-(4-pyridin-2-yl-piperazine-1-carbonyl)-5,6,7,8-tetrahydro-imidazo[1,2-a]pyridin-2-yl]-benzamide] is lower in “BTX inhibition (rat) (% inhibition)” value: 81% for the first, 39% for the second.

First: CCCCN(C(=O)c1cccc(Cl)c1)c1nc2n(c1C(=O)NCCOc1ccccc1)CCCC2 [Example 107, 2-[butyl-(3-chloro-benzoyl)-amino]-5,6,7,8-tetrahydro-imidazo[1,2-a]pyridine-3-carboxylic acid (2-phenoxy-ethyl)-amide]
Second: CCCCN(C(=O)c1cccc(Cl)c1)c1nc2n(c1C(=O)NCc1cccc(C)c1C)CCCC2 [Example 133, 2-[butyl-(3-chloro-benzoyl)-amino]-5,6,7,8-tetrahydro-imidazo[1,2-a]pyridine-3-carboxylic acid 2,3-dimethyl-benzylamide]
The “BTX inhibition (rat) (% inhibition)” value of the first is higher: 39% for the first, 34% for the second.

Compared with `CN(C(=O)c1cccc2ccccc12)c1nc2n(c1C(=O)Nc1ccc(Oc3ccccc3)cc1)CCCC2` [Example 185, 2-[methyl-(naphthalene-1-carbonyl)-amino]-5,6,7,8-tetrahydro-imidazo[1,2-a]pyridine-3-carboxylic acid (4-phenoxy-phenyl)-amide], `CN(C(=O)c1cccc2ccccc12)c1nc2n(c1C(=O)Nc1ccc(C(C)(C)C)cc1)CCCC2` [Example 170, 2-[methyl-(naphthalene-1-carbonyl)-amino]-5,6,7,8-tetrahydro-imidazo[1,2-a]pyridine-3-carboxylic acid (4-tert-butyl-phenyl)-amide] is higher in “BTX inhibition (rat) (% inhibition)” value: 74% for the first, 80% for the second.

First: CCCCN(C(=O)c1ccc(F)c(F)c1)c1nc2n(c1C(=O)NCCC(c1ccccc1)c1ccccc1)CCCC2 [Example 180, 2-[butyl-(3,4-difluoro-benzoyl)-amino]-5,6,7,8-tetrahydro-imidazo[1,2-a]pyridine-3-carboxylic acid (3,3-diphenyl-propyl)-amide]
Second: CCCCN(C(=O)c1cccc(Cl)c1)c1nc2n(c1C(=O)NC(C)c1cccc3ccccc13)CCCC2 (stereo not drawn) [Example 39, 2-[butyl-(3-chloro-benzoyl)-amino]-5,6,7,8-tetrahydro-imidazo[1,2-a]pyridine-3-carboxylic acid (1-naphthalen-1-yl-ethyl)-amide]
The “BTX inhibition (rat) (% inhibition)” value of the first is higher: 62% for the first, 47% for the second.

`CCCCN(C(=O)c1cccc(Cl)c1)c1nc2n(c1C(=O)NC1CCCCC1OCc1ccccc1)CCCC2` (stereo not drawn) [Example 124, 2-[butyl-(3-chloro-benzoyl)-amino]-5,6,7,8-tetrahydro-imidazo[1,2-a]pyridine-3-carboxylic acid (2-benzyloxy-cyclohexyl)-amide] and `CCCCN(C(=O)c1cccc(Cl)c1)c1nc2n(c1C(=O)NCCc1c[nH]c3c(C)cccc13)CCCC2` [Example 69, 2-[butyl-(3-chloro-benzoyl)-amino]-5,6,7,8-tetrahydro-imidazo[1,2-a]pyridine-3-carboxylic acid [2-(7-methyl-1H-indol-3-yl)-ethyl]-amide] are the same in “BTX inhibition (rat) (% inhibition)” value: 48% for the first, 48% for the second.

First: CCCCN(C(=O)c1ccc(F)c(F)c1)c1nc2n(c1C(=O)N1CCN(c3ccc(C(F)(F)F)cn3)CC1)CCCC2 [Example 187, N-butyl-3,4-difluoro-N-{3-[4-(5-trifluoromethyl-pyridin-2-yl)-piperazine-1-carbonyl]-5,6,7,8-tetrahydro-imidazo[1,2-a]pyridin-2-yl}-benzamide]
Second: CCCCN(C(=O)c1ccc(F)c(F)c1)c1nc2n(c1C(=O)N1CCN(c3cc(C)ccc3C)CC1)CCCC2 [Example 138, N-butyl-N-{3-[4-(2,5-dimethyl-phenyl)-piperazine-1-carbonyl]-5,6,7,8-tetrahydro-imidazo[1,2-a]pyridin-2-yl}-3,4-difluoro-benzamide]
The “BTX inhibition (rat) (% inhibition)” value of the first is lower: 41% for the first, 80% for the second.

Going from `COc1cc(Br)c(CN2CCC(NC(=O)c3c(N(C)C(=O)c4cccc(Cl)c4)nc4n3CCCC4)C2)cc1OC` (stereo not drawn) [Example 84, 2-[(3-chloro-benzoyl)-methyl-amino]-5,6,7,8-tetrahydro-imidazo[1,2-a]pyridin-3-carboxylic acid [1-(2-bromo-4,5-dimethoxy-benzyl)-pyrrolidin-3-yl]-amide] to `CCCCN(C(=O)c1cccc(Cl)c1)c1nc2n(c1C(=O)N(C)C1CCN(Cc3c(Cl)cccc3Cl)C1)CCCC2` (stereo not drawn) [Example 87, 2-[butyl-(3-chloro-benzoyl)-amino]-5,6,7,8-tetrahydro-imidazo[1,2-a]pyridine-3-carboxylic acid [1-(2,6-dichloro-benzyl)-pyrrolidin-3-yl]-methyl-amide], the “BTX inhibition (rat) (% inhibition)” value rises from 87% to 93%.

Compared with `CN(C(=O)c1ccccc1)c1nc2n(c1C(=O)Nc1ccc3c(c1)OCO3)CCCC2` [Example 85, 2-(benzoyl-methyl-amino)-5,6,7,8-tetrahydro-imidazo[1,2-a]pyridine-3-carboxylic acid benzo[1,3]dioxol-5-ylamide], `CN(C(=O)c1cccc(Cl)c1)c1nc2n(c1C(=O)Nc1ccc(OCc3ccccc3)cc1)CCCC2` [Example 129, 2-[(3-chloro-benzoyl)-methyl-amino]-5,6,7,8-tetrahydro-imidazo[1,2-a]pyridine-3-carboxylic acid (4-benzyloxy-phenyl)-amide] is higher in “BTX inhibition (rat) (% inhibition)” value: 30% for the first, 76% for the second.

Compared with `CN(C(=O)c1cccc2ccccc12)c1nc2n(c1C(=O)N1CCN(CC=Cc3ccccc3)CC1)CCCC2` [Example 173, naphthalene-1-carboxylic acid methyl-{3-[4-(3-phenyl-allyl)-piperazine-1-carbonyl]-5,6,7,8-tetrahydro-imidazo[1,2-a]pyridin-2-yl}-amide], `CN(C(=O)Cc1ccccc1)c1nc2n(c1C(=O)N(C)C1CCN(Cc3ccc(-c4ccccc4)cc3)C1)CCCC2` (stereo not drawn) [Example 168, 2-(methyl-phenylacetyl-amino)-5,6,7,8-tetrahydro-imidazo[1,2-a]pyridine-3-carboxylic acid (1-biphenyl-4-ylmethyl-pyrrolidin-3-yl)-methyl-amide] is higher in “BTX inhibition (rat) (% inhibition)” value: 74% for the first, 92% for the second.

Compared with `CN(C(=O)c1ccccc1)c1nc2n(c1C(=O)NC(c1ccccc1)c1ccc(Cl)cc1)CCCC2` (stereo not drawn) [Example 166, 2-(benzoyl-methyl-amino)-5,6,7,8-tetrahydro-imidazo[1,2-a]pyridine-3-carboxylic acid [(4-chloro-phenyl)-phenyl-methyl]-amide], `CCCCN(C(=O)c1cccc(Cl)c1)c1nc2n(c1C(=O)NCCSCc1c(Cl)cccc1Cl)CCCC2` [Example 95, 2-[butyl-(3-chloro-benzoyl)-amino]-5,6,7,8-tetrahydro-imidazo[1,2-a]pyridine-3-carboxylic acid [2-(2,6-dichlor-benzylsulphanyl)-ethyl]-amide] is lower in “BTX inhibition (rat) (% inhibition)” value: 72% for the first, 68% for the second.

With `CCCCN(C(=O)c1ccc(F)c(F)c1)c1nc2n(c1C(=O)N1CCN(c3ccccc3Cl)CC1)CCCC2` [Example 178, N-butyl-N-{3-[4-(2-chloro-phenyl)-piperazine-1-carbonyl]-5,6,7,8-tetrahydro-imidazo[1,2-a]pyridin-2-yl}-3,4-difluoro-benzamide] the “BTX inhibition (rat) (% inhibition)” value was 79%.
